Source: patent publication US9879029B2, “ERK inhibitors” (Eli Lilly and Company, priority 2014, dated 2018)

Experiments:
ERK2 = molecular target: T1, ERK2 (Homo sapiens, UniProt P28482); assay: ERK2 kinase assay (TR-FRET); assay type: biochemical; settings: Abs_IC50, ATP 10 μM; ±0.682, n=17
T1 construct: purchased Invitrogen PV3595B
Method: The purpose of this assay is to measure the ability of compounds to inhibit ERK2 kinase activity. Perform the ERK2 kinase assay in vitro using a TR-FRET assay. Start all reactions (12.5 μL) by adding 5 µL of ERK2 enzyme (Invitrogen, #PV3595B, final conc 50 ng/mL) plus substrate GFP-ATF2 (Invitrogen, #PV4445, final conc 0.2 μM), 5 µL of ATP solution (Invitrogen, #PV3227, final conc 10 μM) prepared in kinase buffer (50 mM Hepes pH 7.4, 5 mM MgCl2, 0.1 mM EGTA, 0.01% Triton X-100, 1 mM DTT) and 2.5 μL of testing compounds in DMSO solution ([…], v/v) in a 384-well PROXIPLATE™ (Perkin Elmer, #GRN6260). Incubate reactions at room temperature for 60 minutes. Stop reactions by addition of […] of stop buffer (10 mM EDTA, 2 nM Tb-anti-pATF2 (pThr71) antibody, Invitrogen, #PV4448) in TR-FRET dilution buffer (Invitrogen, # PV3574). Incubate the plates at room temperature for an additional 60 minutes and read ON ENVISION® (PerkinElmer) plate reader at the excitation wavelength of 340 nm. Calculate a TR-FRET ratio by dividing the GFP acceptor emission signal (at 520 nm) by the Tb donor emission signal (at 495 nm). Calculate percent inhibition using compound wells relative to on-plate Max (DMSO control) and Min (No enzyme added) control wells TR-FRET ratio data {% inhibition=100−[(test compound−median Min)/(median Max−Min)×100]}. […]

[1] = tested on: human colorectal cancer cells HCT116; assay: Xenograft tumor model HCT116; assay type: in vivo, female athymic nude mice; settings: oral
Method: (§1) The purpose of this assay is to measure reduction in tumor volume in response to test compound administration. Expand human colorectal cancer cells HCT116 (ATCC, #CCL-247) or human non-small cell lung cancer cells NCI-H358 (ATCC, # CRL-5807) in culture, harvest and inject 5×10e^6 cells in 200 μL of 1:1 HBSS+matrigel solution subcutaneously on to the rear right flank of female athymic nude mice (22-25 gm, Harlan Laboratories). Expand human pancreatic cancer cells SW1990 (ATCC, # CRL-2172) in culture, harvest and inject 2×10e^6 cells in 200 μL of 1:1 HBSS+matrigel solution subcutaneously on to the rear right flank of female athymic nude mice (22-25 gm, Harlan Laboratories). Expand human pancreatic cancer cells MIA PACA-2 (ATCC, # CRL-1420) or human non-small cell lung cancer cells A549 (ATCC, # CCl-185) in culture, harvest and inject 5×10e^6 cells in 200 μL of 1:1 HBSS+matrigel solution subcutaneously on to the rear right flank of female CB-17 SCID mice (22-25 gm, Charles River Laboratories International Inc.). Expand human melanoma cells A-375 (ATCC, # CRL-1619) in culture, harvest and inject 5×10e^6 cells in 200 μL of 1:1 HBSS+matrigel solution subcutaneously on to the rear right flank of female NIH nude rats (140-160 gm, Taconic Farms). Measure tumor growth and body weight twice per week beginning the seventh day after the implantation. When tumor sizes reach 200-400 mm^3, randomize animals and group into groups of eight to ten animals. Prepare test compound in an appropriate vehicle (vehicle: 1% HEC/0.25% Tween 80/0.05% Antifoam) and administer by oral gavage for 14 to 28 days. Tumor response is determined by tumor volume measurement performed twice a week during the course of treatment.

[2] = tested on: human pancreatic cancer cells MIA PACA-2; assay: Xenograft tumor model MIA PACA-2; assay type: in vivo, female CB-17 SCID mice; settings: oral, p <0.001
Method: as §1

[3] = tested on: human non-small cell lung cancer cells NCI-H358; assay: Xenograft tumor model NCI-H358; assay type: in vivo, female athymic nude mice; settings: oral, p <0.001
Method: as §1, with “Measure tumor growth and body weight twice per week beginning the seventh day after the implantation. When tumor sizes reach 200-400 mm^3, randomize animals and group into groups of eight to ten animals. Prepare test compound in an appropriate vehicle (vehicle: 1% HEC/0.25% Tween 80/0.05% Antifoam) and administer by oral gavage for 14 to 28 days.” left out

[4] = tested on: human non-small cell lung cancer cells A549; assay: Xenograft tumor model A549; assay type: in vivo, female CB-17 SCID mice; settings: oral
Method: as §1, with “Measure tumor growth and body weight twice per week beginning the seventh day after the implantation. When tumor sizes reach 200-400 mm^3, randomize animals and group into groups of eight to ten animals. Prepare test compound in an appropriate vehicle (vehicle: 1% HEC/0.25% Tween 80/0.05% Antifoam) and administer by oral gavage for 14 to 28 days.” left out

T1 sequence (P28482 whole entry): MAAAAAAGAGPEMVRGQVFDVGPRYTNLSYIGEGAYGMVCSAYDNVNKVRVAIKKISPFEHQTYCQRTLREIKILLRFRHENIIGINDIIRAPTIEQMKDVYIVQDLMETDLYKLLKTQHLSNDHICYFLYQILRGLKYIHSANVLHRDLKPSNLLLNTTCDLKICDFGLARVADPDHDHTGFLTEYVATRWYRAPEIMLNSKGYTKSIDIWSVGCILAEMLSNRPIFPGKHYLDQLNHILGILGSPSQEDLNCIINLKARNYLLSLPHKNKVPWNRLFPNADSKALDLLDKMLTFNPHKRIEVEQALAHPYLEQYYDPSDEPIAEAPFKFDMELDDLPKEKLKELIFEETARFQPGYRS

COCCN1C(=O)c2cc(-c3ccnc(Nc4ccnn4C)c3)sc2C1(C)C [Example 1, 5-(2-Methoxyethyl)-6,6-dimethyl-2-{2-[(1-methyl-1H-pyrazol-5-yl)amino]pyridin-4-yl}-5,6-dihydro-4H-thieno[2,3-c]pyrrol-4-one]
IC50 (ERK2): 1.93 nM
Delta T/C (%) ([1]; HCT116, 10 mg/kg BID, p 0.023): 55%
Delta T/C (%) ([1]; HCT116, 25 mg/kg BID, p <0.001): 89%
Regression (%) ([1]; HCT116, 50 mg/kg BID, p <0.001): −31%
Delta T/C (%) ([1]; HCT116, 50 mg/kg QD, p <0.001): 83%
Delta T/C (%) ([1]; HCT116, 75 mg/kg QD, p <0.001): 98%
Delta T/C (%) ([2]; MIA PACA-2, 10 mg/kg BID): 76%
Regression (%) ([2]; MIA PACA-2, 25 mg/kg BID): −15%
Delta T/C (%) ([2]; MIA PACA-2, 25 mg/kg QD): 74%
Regression (%) ([2]; MIA PACA-2, 50 mg/kg BID): −72%
Delta T/C (%) ([2]; MIA PACA-2, 50 mg/kg QD): 97%
Regression (%) ([2]; MIA PACA-2, 75 mg/kg QD): −39%
Regression (%) ([3]; NCI-H358, 25 mg/kg BID): −13%
Regression (%) ([3]; NCI-H358, 50 mg/kg BID): −35%
Delta T/C (%) ([4]; A549, 10 mg/kg BID, p 0.471): 13%
Delta T/C (%) ([4]; A549, 30 mg/kg BID, p <0.001): 66%
